In experiment [1] the target is recombinant human kappa (KOR) opioid receptor (Homo sapiens (Human), UniProt P41145). Briefly: biochemical. The format is binding. As to conditions: HEK293 cell membranes, 0.5 nM [3H]diprenorphine.
Experiment [2] has as its target recombinant human mu (MOR) opioid receptor (Homo sapiens (Human), UniProt P35372). In words: Opioid receptor radioligand binding assay, MOR.
Experiment [3] deals with recombinant human delta (DOR) opioid receptor (Homo sapiens (Human), UniProt P41143). In words: Opioid receptor radioligand binding assay, DOR.
Experiment [4] addresses Opioid Kappa Receptor (recombinant human, HEK293 cells) (Homo sapiens (Human), UniProt P41145). In words: cell-based. As to conditions: read-out: EC50.
The mark [5] stands for this setting: HEK293 cell membranes, 0.5 nM [3H]DAMGO, read-out: MOR, IC50.
Where [6] appears, read: HEK293 cell membranes, 0.5 nM [3H]DADLE, read-out: DOR, IC50.

Where two headings read alike, the source gives them in different places. Square brackets hold non-standard residues; d marks the D form. Peptide text beside a SMILES is read from it. * marks the point of attachment. Piperidin1yl(4-NH2,4-CO2Me) = COC(=O)C1(N)CCN(*)CC1

This note sets out measurements from US12215173B2, “Kappa opioid receptor peptide amide ligands” (priority 2019, dated 2025).

A word on the IC50: it is the midpoint of a concentration-inhibition curve. Usually EC50 stands for the concentration giving half of the maximal effect.

Sequence of recombinant human delta (DOR) opioid receptor (P41143 whole entry, looked up): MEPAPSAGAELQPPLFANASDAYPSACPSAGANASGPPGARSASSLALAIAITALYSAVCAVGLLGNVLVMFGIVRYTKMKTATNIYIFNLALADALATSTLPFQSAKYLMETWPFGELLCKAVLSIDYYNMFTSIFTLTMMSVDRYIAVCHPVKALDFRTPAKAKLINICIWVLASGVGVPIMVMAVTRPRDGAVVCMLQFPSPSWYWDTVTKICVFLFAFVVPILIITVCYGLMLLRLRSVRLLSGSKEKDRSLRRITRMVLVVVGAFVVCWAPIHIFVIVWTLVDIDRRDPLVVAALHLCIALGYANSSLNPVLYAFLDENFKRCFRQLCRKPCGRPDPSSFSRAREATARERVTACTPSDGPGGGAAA

For `CC(C)C[C@@H](NC(=O)[C@@H](Cc1ccccc1)NC(=O)[C@H](N)Cc1ccccc1)C(=O)N[C@H](CCCCN)C(=O)NCc1cccnc1C(=O)O` [Compound 13-7], the IC50 in experiment [1] is 11.4 nM; in experiment [2], over 10000 nM; in experiment [3], over 10000 nM. Moreover, the 50% effective concentration (EC50) in experiment [4] was 24.7 nM.
With `CC(C)C[C@@H](NC(=O)[C@@H](Cc1ccccc1)NC(=O)[C@H](N)Cc1ccccc1)C(=O)N[C@H](CCCCN)C(=O)N1CCC(NC(=O)C(=O)O)CC1` [Compound 13-30], the IC50 in experiment [1] was 0.15 nM; in experiment [2] (setting [5]) it was over 10000 nM; in experiment [3] (setting [6]), over 10000 nM. In addition, the half-maximal effective concentration (EC50) in experiment [4] was 4.77 nM.
Take `CC(C)C[C@@H](NC(=O)[C@@H](Cc1ccccc1)NC(=O)[C@H](N)Cc1ccccc1)C(=O)N[C@H](CCCCN)C(=O)N1CCC(NC(=O)/C=C/C(=O)O)CC1` [Compound 13-20]: the values for the half-maximal inhibitory concentration (IC50) in experiment [1], in experiment [2] (setting [5]) and in experiment [3] (setting [6]) were 1.44 nM, over 10000 nM and over 10000 nM, respectively. For the same molecule, the concentration for a half-maximal effect (EC50) in experiment [4] stood at 18 nM.
In the case of `CC(C)C[C@@H](NC(=O)[C@@H](Cc1ccccc1)NC(=O)[C@H](N)Cc1ccccc1)C(=O)N[C@H](CCCCN)C(=O)NC[C@H](N)C(=O)O` [Compound 13-13], the IC50 was 16.1 nM in experiment [1], over 10000 nM in experiment [2] (setting [5]) and over 10000 nM in experiment [3] (setting [6]). Besides, in experiment [4], the EC50 stood at 88.4 nM.
For the molecule `CC(C)C[C@@H](NC(=O)[C@@H](Cc1ccccc1)NC(=O)[C@H](N)Cc1ccccc1)C(=O)N[C@H](CCCCN)C(=O)NC1CCN(C(=O)C(N)=O)CC1` [Compound 13-34], the IC50 in experiment [1] is 3.33 nM; in experiment [2] (setting [5]) it was 2980 nM; in experiment [3] (setting [6]) it was over 10000 nM. Moreover, in experiment [4], the EC50 was 20.2 nM.
As for `CC(C)C[C@@H](NC(=O)[C@@H](Cc1ccccc1)NC(=O)[C@H](N)Cc1ccccc1)C(=O)N[C@H](CCCCN)C(=O)N1CCC(NC(=O)C(N)C(=O)O)CC1` (stereo partly shown) [Compound 13-40], the IC50 in experiment [1] was 0.3 nM; in experiment [2] (setting [5]), 6390 nM; in experiment [3] (setting [6]), over 10000 nM. In addition, the EC50 in experiment [4] came to 7.48 nM.
As for `COC(=O)C1(N)CCN(C(=O)CNC(=O)[C@@H](CCCCN)NC(=O)[C@@H](CC(C)C)NC(=O)[C@@H](Cc2ccccc2)NC(=O)[C@H](N)Cc2ccccc2)CC1` [Compound 66] (H-[dF][dF][dL][dK]G-{Piperidin1yl(4-NH2,4-CO2Me)}), the IC50 was 20.9 nM in experiment [1], 307 nM in experiment [2] and over 10000 nM in experiment [3]. In addition, the EC50 in experiment [4] was 12.9 nM.
Turning to `CC(C)C[C@@H](NC(=O)[C@@H](Cc1ccccc1)NC(=O)[C@H](N)Cc1ccccc1)C(=O)N[C@H](CCCCN)C(=O)N1CCN(C(=O)C(=O)N(C)C)CC1` [Compound 13-26], the IC50 in experiment [1] is 1.83 nM; in experiment [2] (setting [5]), over 10000 nM; in experiment [3] (setting [6]) it was over 10000 nM. In experiment [4], the EC50 was 10.2 nM.
As for `CC(C)C[C@@H](NC(=O)[C@@H](Cc1ccccc1)NC(=O)[C@H](N)Cc1ccccc1)C(=O)N[C@H](CCCCN)C(=O)N1CCC(NC(=O)C(=O)N(C)C)CC1` [Compound 13-16], the half-maximal inhibitory concentration (IC50) stood at 0.37 nM in experiment [1], 215 nM in experiment [2] (setting [5]) and 2410 nM in experiment [3] (setting [6]). In addition, the EC50 in experiment [4] is 19.4 nM.
For `CCNC(=O)C(=O)NC1CCN(C(=O)[C@@H](CCCCN)NC(=O)[C@@H](CC(C)C)NC(=O)[C@@H](Cc2ccccc2)NC(=O)[C@H](N)Cc2ccccc2)CC1` [Compound 13-35] the same measures were 0.31 nM, 8430 nM, over 10000 nM and 10.8 nM.
